Measured values from patent US20160158200A1, “Combinations of Hepatitis C Virus Inhibitors” (priority 2013, published 2016).

The molecules below were run on HCV genotype-1a variant with glutamine 30 changed to glutamate in the NS5A protein. Conditions: test compound titrated with BMS-790052 fixed at 200 nM; genotype 1a Q30E replicon.
Type: cell-based
How it was run: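 Synergy was assessed by combining several fixed amounts of an NS5A-targeting compound with a titration of the second compound of interest.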

SMILES | Fold-Synergistic 1a (Q30E)
CC(C)(C)[C@H](NC(=O)C1CCC(F)(F)CC1)c1ncc(CCc2ccc3cc(-c4cnc([C@@H](NC(=O)C5CCC(F)(F)CC5)C(C)(C)C)[nH]4)ccc3c2)[nH]1 [Compound B6] | >100 fold
CC(C)(C)[C@H](NC(=O)C1CCC(F)(F)CC1)c1nc(-c2ccc(-c3ccc4c(c3)CCc3nc([C@@H](NC(=O)C5CCC(F)(F)CC5)C(C)(C)C)[nH]c3-4)cc2)c[nH]1 [Compound B10] | >100 fold
CC(C)(C)[C@H](NC(=O)C1(C2(O)CCC(F)(F)CC2)CC1)c1nc(-c2ccc(-c3ccc4c(c3)CCc3nc([C@@H](NC(=O)C5(C6(O)CCC(F)(F)CC6)CC5)C(C)(C)C)[nH]c3-4)cc2)c[nH]1 [Compound B13B] | >100 fold
CC(C)(C)[C@H](NC(=O)C1CCC(F)(F)CC1)c1ncc(-c2ccc(-c3ccc4c(ccc5nc([C@@H](NC(=O)C6CCC(F)(F)CC6)C(C)(C)C)[nH]c54)c3)cc2)[nH]1 [Compound B17] | >100 fold
CC(C)(C)[C@H](NC(=O)C1CCC(F)(F)CC1)c1nc2c([nH]1)-c1ccc(-c3ccc4c(c3)CCc3nc([C@@H](NC(=O)C5CCC(F)(F)CC5)C(C)(C)C)[nH]c3-4)cc1CC2 [Compound B23] | >100 fold
CC(C)(C)[C@H](NC(=O)C1CCC(F)(F)CC1)c1nc2c([nH]1)-c1ccc(-c3ccc4c(ccc5nc([C@@H](NC(=O)C6CCC(F)(F)CC6)C(C)(C)C)[nH]c54)c3)cc1CC2 [Compound B24] | >100 fold
CC(C)(C)[C@H](NC(=O)C1CCC(F)(F)CC1)c1nc2ccc3cc(-c4ccc5c(ccc6nc([C@@H](NC(=O)C7CCC(F)(F)CC7)C(C)(C)C)[nH]c65)c4)ccc3c2[nH]1 [Compound B25] | >100 fold
CC(C)(C)[C@H](NC(=O)C1CCC(F)(F)CC1)c1ncc(-c2ccc3cc4cc(-c5cnc([C@@H](NC(=O)C6CCC(F)(F)CC6)C(C)(C)C)[nH]5)ccc4cc3c2)[nH]1 [Compound B26] | >100 fold
CC(C)(C)C(=O)N[C@H](c1ncc(-c2ccc3cc4cc(-c5cnc([C@@H](NC(=O)C(C)(C)C)C(C)(C)C)[nH]5)ccc4cc3c2)[nH]1)C(C)(C)C [Compound B27] | >100 fold
CC(=O)c1ccc2cc3cc(-c4cnc([C@@H](NC(=O)C5CCC(F)(F)CC5)C(C)(C)C)[nH]4)ccc3cc2c1 [Compound B28] | >100 fold
CC(C)[C@H](NC(=O)C1CCC(F)(F)CC1)c1ncc(-c2ccc3cc4cc(-c5cnc([C@@H](NC(=O)C6CCC(F)(F)CC6)C(C)C)[nH]5)ccc4cc3c2)[nH]1.O=C(O)C(F)(F)F [Compound B29] | >100 fold
CC(C)[C@H](NC(=O)C(C)(C)C)c1ncc(-c2ccc3cc4cc(-c5cnc([C@@H](NC(=O)C(C)(C)C)C(C)C)[nH]5)ccc4cc3c2)[nH]1.O=C(O)C(F)(F)F [Compound B30] | >100 fold
CC(C)(C)[C@H](NC(=O)C1CCC(F)(F)CC1)c1nc2ccc(-c3ccc(-c4ccc5nc([C@@H](NC(=O)C6CCC(F)(F)CC6)C(C)(C)C)[nH]c5c4)cc3)cc2[nH]1 [Compound B32] | >100 fold
CC(C)(C)C(=O)N[C@H](c1nc2ccc(-c3ccc(-c4ccc5nc([C@@H](NC(=O)C(C)(C)C)C(C)(C)C)[nH]c5c4)cc3)cc2[nH]1)C(C)(C)C.O=C(O)C(F)(F)F [Compound B33] | >100 fold
CC(C)(C)[C@H](NC(=O)C1CCC(F)(F)CC1)c1nc2ccc(C#Cc3ccc4nc([C@@H](NC(=O)C5CCC(F)(F)CC5)C(C)(C)C)[nH]c4c3)cc2[nH]1 [Compound B38] | >100 fold
CC(C)(C)C(=O)N[C@H](c1nc2ccc(C#Cc3ccc4nc([C@@H](NC(=O)C(C)(C)C)C(C)(C)C)[nH]c4c3)cc2[nH]1)C(C)(C)C.O=C(O)C(F)(F)F [Compound B39] | >100 fold
CC(C)(C)[C@H](NC(=O)C(C)(C)C1(O)CCC(F)(F)CC1)c1nc2ccc(C#Cc3ccc4nc([C@@H](NC(=O)C(C)(C)C5(O)CCC(F)(F)CC5)C(C)(C)C)[nH]c4c3)cc2[nH]1.O=C(O)C(F)(F)F [Compound B41A] | >100 fold
CC(C)(C)[C@H](NC(=O)C1(C2(O)CCC(F)(F)CC2)CC1)c1nc2ccc(C#Cc3ccc4nc([C@@H](NC(=O)C5(C6(O)CCC(F)(F)CC6)CC5)C(C)(C)C)[nH]c4c3)cc2[nH]1.O=C(O)C(F)(F)F [Compound B41B] | >100 fold
CC(C)[C@H](NC(=O)C1CCC(F)(F)CC1)c1nc2ccc(C#Cc3ccc4nc([C@@H](NC(=O)C5CCC(F)(F)CC5)C(C)C)[nH]c4c3)cc2[nH]1.O=C(O)C(F)(F)F [Compound B42] | >100 fold
CC(C)[C@H](NC(=O)C(C)(C)C)c1nc2ccc(C#Cc3ccc4nc([C@@H](NC(=O)C(C)(C)C)C(C)C)[nH]c4c3)cc2[nH]1.O=C(O)C(F)(F)F [Compound B43] | >100 fold
CC(C)(C)[C@H](NC(=O)C1CCC(F)(F)CC1)c1ncc(-c2ccc(C#Cc3ccc4nc([C@@H](NC(=O)C5CCC(F)(F)CC5)C(C)(C)C)[nH]c4c3)cc2)[nH]1 [Compound B45] | >100 fold

SMILES | Fold-Synergistic 1a (Q30E)
CC(C)(C)[C@H](NC(=O)C1CCC(F)(F)CC1)c1nc2ccc(C#CC#Cc3ccc4nc([C@@H](NC(=O)C5CCC(F)(F)CC5)C(C)(C)C)[nH]c4c3)cc2[nH]1 [Compound B46] | >100 fold
CC(C)(C)[C@H](NC(=O)C(C)(C)C1(O)CCC(F)(F)CC1)c1ncc(-c2ccc(C#Cc3ccc4nc([C@@H](NC(=O)C(C)(C)C5(O)CCC(F)(F)CC5)C(C)(C)C)[nH]c4c3)cc2)[nH]1 [Compound B48A] | >100 fold
CC(C)(C)[C@H](NC(=O)C1(C2(O)CCC(F)(F)CC2)CC1)c1ncc(-c2ccc(C#Cc3ccc4nc([C@@H](NC(=O)C5(C6(O)CCC(F)(F)CC6)CC5)C(C)(C)C)[nH]c4c3)cc2)[nH]1 [Compound B48B] | >100 fold
CC(C)[C@H](NC(=O)C1CCC(F)(F)CC1)c1ncc(-c2ccc(C#Cc3ccc4nc([C@@H](NC(=O)C5CCC(F)(F)CC5)C(C)C)[nH]c4c3)cc2)[nH]1 [Compound B51] | >100 fold
CC(C)[C@H](NC(=O)C1CCC(F)(F)CC1)c1nc2ccc(C#CC#Cc3ccc4nc([C@@H](NC(=O)C5CCC(F)(F)CC5)C(C)C)[nH]c4c3)cc2[nH]1 [Compound B52] | >100 fold
CC(C)(C)[C@H](NC(=O)C1CCC(F)(F)CC1)c1ncc(-c2ccc3cc(-c4ccc5nc([C@@H](NC(=O)C6CCC(F)(F)CC6)C(C)(C)C)[nH]c5c4)ccc3c2)[nH]1 [Compound B53] | >100 fold
CC(C)(C)C(=O)N[C@H](c1ncc(-c2ccc3cc(-c4ccc5nc([C@@H](NC(=O)C(C)(C)C)C(C)(C)C)[nH]c5c4)ccc3c2)[nH]1)C(C)(C)C [Compound B54] | >100 fold
CC(C)[C@H](NC(=O)C1CCC(F)(F)CC1)c1ncc(-c2ccc3cc(-c4ccc5nc([C@@H](NC(=O)C6CCC(F)(F)CC6)C(C)C)[nH]c5c4)ccc3c2)[nH]1 [Compound B55] | >100 fold
CC(C)(C)[C@H](NC(=O)C1CCC(F)(F)CC1)c1ncc(-c2ccc(-c3ccc(-c4ccc5nc([C@@H](NC(=O)C6CCC(F)(F)CC6)C(C)(C)C)[nH]c5c4)cc3)cc2)[nH]1 [Compound B56] | >100 fold
CC(C)(C)[C@H](NC(=O)C1CCC(F)(F)CC1)c1ncc(-c2ccc(-c3ccc(-c4cnc([C@@H](NC(=O)C5CCC(F)(F)CC5)C(C)(C)C)[nH]4)s3)cc2)[nH]1 [Compound B57] | >100 fold
CC(C)(C)[C@H](NC(=O)C(C)(C)C1(O)CCC(F)(F)CC1)c1ncc(-c2ccc(-c3ccc4nc([C@@H](NC(=O)C(C)(C)C5(O)CCC(F)(F)CC5)C(C)(C)C)[nH]c4c3)cc2)[nH]1 [Compound B58A] | >100 fold
CC(C)(C)[C@H](NC(=O)C1(C2(O)CCC(F)(F)CC2)CC1)c1ncc(-c2ccc(-c3ccc4nc([C@@H](NC(=O)C5(C6(O)CCC(F)(F)CC6)CC5)C(C)(C)C)[nH]c4c3)cc2)[nH]1 [Compound B58B] | >100 fold
CC(C)(C)[C@H](NC(=O)C1CCC(F)(F)CC1)c1ncc(-c2ccc(-c3ccc4nc([C@@H](NC(=O)C5CCC(F)(F)CC5)C(C)(C)C)[nH]c4c3)cc2)[nH]1 [Compound B58] | >100 fold
CC(C)(C)[C@H](NC(=O)C1CCC(F)(F)CC1)c1ncc(-c2cc3cc4oc(-c5cnc([C@@H](NC(=O)C6CCC(F)(F)CC6)C(C)(C)C)[nH]5)cc4cc3o2)[nH]1 [Compound B59] | >100 fold
CC(C)(C)[C@H](NC(=O)C1CCC(F)(F)CC1)c1ncc(C#Cc2ccc(C#Cc3cnc([C@@H](NC(=O)C4CCC(F)(F)CC4)C(C)(C)C)[nH]3)cc2)[nH]1 [Compound B60] | >100 fold
CC(C)(C)[C@H](NC(=O)C1CCC(F)(F)CC1)c1ncc(-c2ccc(-c3cc4ccc(-c5cnc([C@@H](NC(=O)C6CCC(F)(F)CC6)C(C)(C)C)[nH]5)cc4o3)cc2)[nH]1 [Compound B61] | >100 fold
CC(C)(C)C(=O)N[C@H](c1ncc(-c2ccc(-c3cc4ccc(-c5cnc([C@@H](NC(=O)C(C)(C)C)C(C)(C)C)[nH]5)cc4o3)cc2)[nH]1)C(C)(C)C.O=C(O)C(F)(F)F [Compound B62] | >10 fold
COC(=O)N(C)C1(C(=O)N[C@H](c2ncc(-c3ccc(-c4cc5ccc(-c6cnc([C@@H](NC(=O)C7(N(C)C(=O)OC)CC7)C(C)(C)C)[nH]6)cc5o4)cc3)[nH]2)C(C)(C)C)CC1.O=C(O)C(F)(F)F [Compound B63] | >10 fold
CC(C)(C)[C@H](NC(=O)C1CCC(F)(F)CC1)c1ncc(C#Cc2ccc3cc(C#Cc4cnc([C@@H](NC(=O)C5CCC(F)(F)CC5)C(C)(C)C)[nH]4)ccc3c2)[nH]1 [Compound B65] | >100 fold
CC(C)(C)[C@H](NC(=O)C1CCC(F)(F)CC1)c1ncc(C#CC#Cc2cnc([C@@H](NC(=O)C3CCC(F)(F)CC3)C(C)(C)C)[nH]2)[nH]1 [Compound B66] | >10 fold
